Series [1] in a line: In vivo stability test (plasma pharmacokinetics after single intravenous injection). Particulars: mouse. How it is done: After 15 min of centrifugation at 5,000 rpm and 4 °C, the plasma was obtained and stored at -80 °C. Plasma peptide concentrations were quantified by ELISA, and pharmacokinetic profiles were analyzed using Phoenix WinNonlin 8.1 (Pharsight Corporation, Mountain View, CA, USA). The area under the plasma concentration-time curve (AUC), distribution half-time (T1/2), maximum plasma concentration (Cmax) and time required to reach maximum plasma concentration (Tmax) values were directly determined from the experimental data. […]
(§1) bated at 37 °C for 0, 3, 6, 9, and 24 h. The portion of serum-treated peptide remaining was determined by calcu-lating the height of the respective elution peak in analytical-HPLC and comparing it with control without incuba- […]
Plasma peptide concentrations were quantified by ELISA, and pharmacokinetic profiles were analyzed using Phoenix WinNonlin 8.1 (Pharsight Corporation, Mountain View, CA, USA). The data are presented as the means ± standard deviation.

A short description of series [2]: In vitro stability test in human serum. Particulars: 100 μM stock diluted 10-fold in 100% human serum, 37 °C, 0-24 h; analytical HPLC; triplicate. How it is done:
Stock solutions of peptides (100 μM) were diluted by a factor of 10 with pre-warmed 100% human serum (Sigma-Aldrich, St. Louis, MO, USA) and incubated at 37 °C for 0, 3, 6, 9, and 24 h. Controls with peptides in PBS were included. The action was stopped by denaturing the serum proteins with urea at a final concentration of 3 M at 4 °C for 10 min, followed by precipitation of serum proteins with trichloroacetic acid at a final concentration of 7% (v/v) (4 °C, 10 min) and centrifugation (17,000 × g, 10 min). The supernatant of each sample was recovered and run on an analytical column using a linear gradient of 5-65% solvent B for 30 min at a flow rate of 1 ml/min, where solvent A was water containing 0.1% TFA and solvent B was acetonitrile containing 0.1% TFA. The percentage of peptide remaining in serum-treated samples was determined by comparing the height of the peptide peak obtained at each time point with that of the peptide peak obtained at the 0 time point. […]
as §1
Plasma peptide concentrations were quantified by ELISA, and pharmacokinetic profiles were analyzed using Phoenix WinNonlin 8.1 (Pharsight Corporation, Mountain View, CA, USA). […]

A further series has as its system MDA-MB-231-luc xenograft. As to the kind of experiment: Tumorigenesis experiment, MDA-MB-231-luc breast cancer xenograft. Particulars: tail vein twice a week; for average tumor volume: day 21, n = 5; for final average tumor weight: n = 5. How it is done: All animal experiments were performed in accordance with IACUC guidelines (GIST-2019-040). For tumorigenesis experiments, anesthetized 6-week-old female NOD-scid Il2rg^-^/^- mice (NPG^TM, VITALSTAR) were inoculated in the mammary fat pad with 1 × 10^6 MDA-MB-231-luc cells in a 100 μl volume (n = 5 for each group). After tumor cell inoculation, when the tumor volume reached approximately 100 mm^3, the mice were randomly divided into the following five groups: (i) control, (ii) low-dose paclitaxel (2 mg/kg), (iii) high-dose paclitaxel (10 mg/kg), (iv) AGM-330 (16.68 mg/kg, molar equivalent to 2 mg/kg of PTX), and (v) AGM-330-PTX (19.05 mg/kg, molar equivalent to 2 mg/kg of PTX). The tumor size was measured twice a week, and the tumor volume was calculated with the following formula: volume (mm^3) = [length (mm)] × [width (mm)]^2 × 0.5. For the bioluminescent imaging experiment, D-luciferin (150 mg/kg; PerkinElmer) was intraperitoneally injected into each mouse, and an IVIS 100 imaging system (Xenogen, Corporation, Alameda, CA) was used for bioluminescent monitoring. Mice were anesthetized with vaporized isofurane (BK Pharm, Ilsan, Korea) and placed in an imaging chamber. After 10 min, each animal was imaged with an exposure time of 1 min. All bioluminescent image data were obtained using Living Image software (version 4.5.2, PerkinElmer). Photons detected from tumors were converted to average radiance values (photon/sec/cm^2/sr), which are quantitative data obtained from a region of […] (ROI) and include the photons emitted by bioluminescent cells from an assigned rectangular area over the whole body of each mouse.
A, Cell proliferation inhibition by AGM-330-PTX treatment was determined for 48 h by the WST assay in multiple breast and colorectal cancer cells and in normal cells. B, Schematic representation of the experimental protocol as described in the materials and methods section. Anesthetized 6‑week-old […] NPG mice were inoculated with a 1:1 mix of Matrigel and 1 × 10^6 MDA-MB-231-luc cells into the mammary fat pad. When the volume of primary tumors reached approximately 100 mm^3, tumor-bearing mice were treated with vehicle (PBS), PTX (2 or 10 mg/kg), AGM-330 (16.68 mg/kg, molar equivalent to 2 mg/kg of PTX), or AGM-330-PTX (19.05 mg/kg, molar equivalent to 2 mg/kg of PTX; n = 5/group). C-E, The therapeutic effect of AGM-330-PTX was evaluated in breast cancer xenograft models. C, Primary tumor volume was measured twice a week until the day of sacrifice. The primary tumor volume was calculated by the formula volume (mm^3) = (length (mm)) × (width (mm))^2 × 0.5. D, On the day of sacrifice, all primary tumors were isolated, and (E) the primary tumor weights were evaluated. F-I, Immunohistochemistry (IHC) sections of representative tumors with Ki-67 (F,H) and TUNEL (G,I) staining. Nuclei were stained with DAPI (blue). Scale bar, 50 µm. Bar graphs represent the mean ± SD, and statistical analyses were performed by one-way ANOVA with Dunnett's multiple comparison. *, **, and *** indicate P < 0.05, P < 0.01, and P < 0.001, respectively.
Following in vitro proliferation analysis on cancer lines, we investigated whether AGM-330-PTX could be a potential therapeutic agent in vivo. We inoculated MDA-MB-231-luc cells into the mammary fat pad of NPG mice. After the […] tumors grew to 100 mm^3, comparative efficacy studies were performed by dividing the animals into five groups (n = 5/group) treated with vehicle (PBS), PTX (2 or 10 mg/kg, respectively), AGM-330 (16.68 mg/kg, molar equivalent to 2 mg/kg of PTX), or AGM-330-PTX (19.05 mg/kg, molar equivalent to 2 mg/kg of PTX) twice a week by tail vein injection (Figure 5B). Tumor growth was monitored by measuring volumes twice a week with a caliber rule over the course of 3 weeks.
Figure S11. A-E, NPG TM mice bearing MDA-MB-231-luc tumors were treated twice a week for 21 days with […]

In a further series the test system is MCF-10A cells. As to the kind of experiment: cells. Particulars: Homo sapiens, MCF-10A, 48 h, read-out: IC50, MCF-10A cells. How it is done: (§2) Cancer and normal cells (1 × 10^4 cells/well) were seeded in 96-well plates, incubated for 24 h, and then treated with increasing concentrations of AGM-330, PTX, and AGM-330-PTX for 48 h. Cell viability was assessed by the CellVia WST-1 assay (Young In Frontier) according to the manufacturer's instructions. The numbers of viable cells were measured at a wavelength of 450 nm using a VersaMax ELISA plate reader (Molecular Devices, San Jose, CA, USA).
(§3) Figure S3. A-C, Cancer and normal cells (1 × 10^4 cells/well) were seeded in 96-well plates. After 24 h of incuba-tion, the cells were treated with an increasing concentration of dimeric or tetrameric AGM-330 for 48 h. The viability of cells grown in 0 % FBS (A), 5 % FBS (B) or 10 % FBS (C) was assessed by a CellVia WST-1 assay (Young In Frontier, Seoul, Korea) according to the manufacturer’s instruction. The numbers of viable cells were measured at a wavelength of 450 nm using an VersaMax ELISA plate reader (Molecular Devices). D, E, Binding specificity of AGM-330. A whole-cell binding assay was performed to determine the cell binding of AGM-330 in 1 % FBS (D) or 5 % FBS (E). Scale bar, 200 μm.

The test system of series [3] is MDA-MB-231 cells. In words: cells. As to conditions: Homo sapiens, MDA-MB-231, 48 h, read-out: IC50, MDA-MB-231 cells. How it is done:
as §2, §3

For series [4], the system named is cancer cells (MCF-7, MDA-MB-231, HT-29, HCT-116). As to the kind of experiment: Flow cytometry binding of FITC-labeled peptide. Format: cell-based, human. Particulars: 1 × 10^5 cells, 2 h at 37 °C, serum-free medium. How it is done:
(§4) Fluorescence-activated cell-sorting (FACS) analysis was used to check the binding of the FITC labeled peptides (FITC-peptide). The stock solution for the FITC-peptides (100 μM) was prepared by dissolving the peptide in PBS. MCF-10A, MCF-7, MDA-MB-231, CCD-18Co, HT-29, and HCT-116 cells were seeded in 6-well plates (10^5 cells/well) containing 3 ml of medium, and the plates were then incubated at 37 °C overnight. […] Thereafter, the medium was removed, and the cells were washed with cold PBS to remove any remaining peptide. Adequate trypsin/EDTA was added to each well, which was followed by a 3 ~ 5 min incubation at 37 °C. Trypsin/EDTA was immediately neutralized by adding medium, and the cell suspension was then transferred into centrifuge tubes. The cells were separated and washed twice with PBS. […] The prepared cells were analyzed on a FACScanto II (BD Biosciences, San Jose, CA, USA) flow cytometer, and the FACS data were analyzed using FlowJo (TreeStar, Ashland, OR, USA).
(§5) Next, to examine whether the MAP ligand can selectively bind to cancer cells, cancer cells treated with FITC-labeled AGM-330 (AGM-330-FITC) were compared with untreated cells. […] Then, the inherent fluorescence of peptide-treated cells were compared and measured based on changes in the mean fluorescence intensity (MFI) values compared to those of untreated cells (Figure 1D and E).
On the technique in general: Flow cytometry measures light scatter and fluorescence of single cells or particles in a stream.

In series [5] the test system is normal cells (MCF-10A, CCD-18Co). In words: Flow cytometry binding of FITC-labeled peptide. As to conditions: 1 × 10^5 cells, 2 h at 37 °C, serum-free medium. Format: cell-based, human. How it is done:
as §4, §5

The subject of series [6] is MDA-MB-231 cells. In words: Time-dependent binding/internalization of AGM-330-FITC, confocal microscopy. Particulars: 5 μmol/l, 37 °C, 1, 3, 6 and 12 h, confocal fluorescence. Format: cell-based, human. How it is done: We evaluated the specificity of AGM-330 to NCL with cell binding assays against different cell lines using fluorescence microscopy. The experiment was performed using multiple cancer cell lines, MCF-7, MDA-MB-231, HT-29, and HCT-116, and normal cell lines, MCF-10A, and CCD-18Co. The binding specificity was determined by confocal imaging after 1 h of incubation of the cells with 5 μmol/l AGM-330-FITC. The cells were incubated with DAPI to counterstain the nuclei (blue fluorescence). […] To evaluate the ability of AGM-330 to undergo NCL-mediated endocytosis, MDA-MB-231 cells were incubated with AGM-330-FITC at 37 °C for different times (1, 3, 6 and 12 h). […] As mentioned in a previous study, N6L is essentially built on a lysine-rich helicoid template formed by a repeat of 6 tripeptide units. […] Therefore, the difference in the molecular structure between AGM-330 and N6L may be caused by different endocytosis mechanisms. […] However, except for membrane NCL, we could not confirm the protein associated with internalization among the proteins bound to AGM-330 (Figure 2D). Taken together, N6L, which binds to both membrane NCL and nucleophosmin, induce apoptosis after internalization into nucleolus of cancer cells.
Figure S6. Time-dependent in vitro binding assay of AGM-330-FITC toward cancer cells. MDA-MB-231 cells were incubated with 5 μmol/l AGM-330-FITC for 1, 3, 6 and 12 h at 37 °C. […]

Series [7] deals with T1, full length recombinant NCL (OriGene) (UniProt P19338 1-710).
T1 construct: nucleolin, full length recombinant protein from OriGene; no catalogue number, species or tags are printed; source: bought: OriGene
T1 sequence (P19338 whole entry): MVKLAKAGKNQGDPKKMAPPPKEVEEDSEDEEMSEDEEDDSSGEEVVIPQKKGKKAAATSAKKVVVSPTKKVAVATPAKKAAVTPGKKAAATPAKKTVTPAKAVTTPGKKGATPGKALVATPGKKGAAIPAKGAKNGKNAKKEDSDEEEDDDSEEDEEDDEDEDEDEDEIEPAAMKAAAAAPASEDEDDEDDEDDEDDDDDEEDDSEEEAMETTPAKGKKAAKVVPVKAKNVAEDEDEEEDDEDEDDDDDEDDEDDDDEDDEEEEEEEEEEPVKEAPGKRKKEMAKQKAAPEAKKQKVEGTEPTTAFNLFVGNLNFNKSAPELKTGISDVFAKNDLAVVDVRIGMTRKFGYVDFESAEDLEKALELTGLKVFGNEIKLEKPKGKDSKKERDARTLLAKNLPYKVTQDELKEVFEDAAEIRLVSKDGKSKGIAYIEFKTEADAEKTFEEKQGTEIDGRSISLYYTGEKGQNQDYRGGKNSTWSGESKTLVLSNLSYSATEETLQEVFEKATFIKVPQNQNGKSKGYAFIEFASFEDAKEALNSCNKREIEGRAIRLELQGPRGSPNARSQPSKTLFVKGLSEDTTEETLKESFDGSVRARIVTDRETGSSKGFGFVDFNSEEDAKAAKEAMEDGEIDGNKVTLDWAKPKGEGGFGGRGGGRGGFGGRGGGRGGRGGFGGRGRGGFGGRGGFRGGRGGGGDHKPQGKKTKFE
As to the kind of experiment: SPR; Biacore T-200, 25 °C; full length recombinant NCL amine-coupled on CM5 (about 1000 RU); AGM-330 20 nM - 2.5 μM injected at 30 μl/min; HBS-EP (10 mM HEPES pH 7.4, 0.15 M NaCl, 3.4 mM EDTA, 0.05% Triton-X 100); KD = kd/ka. Particulars: both partners purified. (Surface plasmon resonance follows binding to a sensor surface in real time, without labels.)

The text below walks through data of paper PMC7415810, “A novel nucleolin-binding peptide for Cancer Theranostics” (Theranostics, 2020).

A word on the Cmax: it is the peak of the concentration-time curve. In general, Tmax refers to the time from dosing to the highest level. The term IC50 denotes the point on the concentration scale where inhibition reaches its midpoint. As a reminder, the Kd is the concentration at which binding is half-saturated.

For `CSCC[C@H](NC(=O)[C@H](C)NC(=O)CNC(=O)[C@H](Cc1c[nH]cn1)NC(=O)[C@@H](N)CCCNC(=N)N)C(=O)N[C@H](C(=O)N[C@@H](Cc1ccc(O)cc1)C(=O)N[C@@H](CC(C)C)C(=O)N[C@@H](CCCCN)C(=O)O)C(C)C` [AGM-330m], in series [1], the Cmax was determined as 1270 ± 120 ng/mL and the Tmax amounted to 10 min. The “degradation after incubation with serum” value in series [2] was “rapidly degraded”.

Consider `CC(=O)O[C@H]1C(=O)[C@@]2(C)[C@H]([C@H](OC(=O)c3ccccc3)[C@]3(O)C[C@H](OC(=O)[C@H](O)[C@@H](NC(=O)c4ccccc4)c4ccccc4)C(C)=C1C3(C)C)[C@]1(OC(C)=O)CO[C@@H]1C[C@@H]2O` [PTX, paclitaxel, reference compound], for which the average tumor volume in the series on MDA-MB-231-luc xenograft (2 mg/kg) amounted to 1671 ± 199 mm^3; in the series on MDA-MB-231-luc xenograft (10 mg/kg), 988 ± 78 mm^3. Also, the “final average tumor weight” value with MDA-MB-231-luc xenograft (2 mg/kg) amounted to 2.1 ± 0.4 g; in the series on MDA-MB-231-luc xenograft (10 mg/kg), 1.5 ± 0.1 g. For the same molecule, the IC50 is 450 nM in the series on MCF-10A cells and 370 nM in the series with MDA-MB-231 cells [3].

“AGM-330-FITC (RHGAMVYLK; PEG12 after the C-terminal Lys of each RHGAMVYLK arm, joined to a trilysine core; FITC (by FITC-5-maleimide))”: the “binding to cancer cells (MFI relative to untreated cells)” value in series [4] is “significant cancer cell binding”. Further, in series [5], the “binding to normal cells (MFI)” value was “significant decrease in binding to normal cells”. In the series with MDA-MB-231 cells [6], the “cellular uptake / internalization” value is on record as “not taken up by the cytoplasm or nucleolus”.

B1: AGM-330 (tetrameric multiple-antigen-peptide form) (peptide)
peptide: RHGAMVYLK
modifications: PEG12 after the C-terminal Lys of each RHGAMVYLK arm (RHGAMVYLK-PEG12-OH), joined to a trilysine core
notes: arm of the dendrimer; picked from a one-bead-one-compound library on MDA-MB-231 cells; The core is not written as a chain; also called tetrameric AGM-330; source: synthetic peptide (AnyGen, solid-phase peptide synthesis)
Take B1: in series [7], the Kd was 57.7 ± 12 nM.
